Experimental findings from US12138273B2 (Propella Therapeutics, Inc., priority 2019, dated 2024) are described below.

SMILES strings stand for the structures.

The conditions of data set [1]: Beagle, dog, in vivo.
For data set [2] the following is noted: dog, in vivo. An excerpt: An additional study was done using dogs as the animal model instead of rats.

For the compound `C[C@]12CC[C@H](O)CC1=CC[C@@H]1[C@@H]2CC[C@]2(C)C(c3cccnc3)=CC[C@@H]12` [abiraterone, (3β)-17-(pyridin-3-yl) androsta-5, 16-dien-3-ol], the “mean AUCINF following IM administration, corrected for dose and time units” value in data set [1] came to 105 ng·h/mL.
Regarding `CC(=O)O[C@H]1CC[C@@]2(C)C(=CC[C@@H]3[C@@H]2CC[C@]2(C)C(c4cccnc4)=CC[C@@H]32)C1` [abiraterone acetate], in data set [2], the “irritation at the injection site” value is on record as “irritating to the dogs at the injection site”. In addition, in data set [2] (male), the “% F” value worked out at 61.7% and the “measurable blood levels out to” value is 504 h. This compound came in with an AUCINF/Dose in data set [2] (male, im) of 329.
